The source of these data is paper PMC3215271 (European journal of pharmacology, 2011).

Several values for one entry are separate records, joined by “and”; a condition that tells them apart may be missing. Identical values can stand only once. Entries after “also recorded” stand apart in the source; their conditions may differ.

Data set [1] deals with formalin-induced flinching behavior. To be noted: formalin model; i.p.; ref Holtman et al., 2010b; cited from earlier work.
In data set [2] the test system is rotarod performance. To be noted: ref Holtman et al., 2010b, cited from earlier work.
For data set [3], the system named is mechanical hyperalgesia. The settings on record: chronic constriction injury; i.p.; ref Holtman et al., 2010b; cited from earlier work.
The target of data set [4] is α3β2 nicotinic acetylcholine receptor (Rattus norvegicus, UniProt P04757+P12390). The settings on record: 95% CI in parentheses.
For data set [5], the target named is α3β4 nicotinic acetylcholine receptor (Rattus norvegicus, UniProt P04757+P12392). The settings on record: 95% CI in parentheses.
For data set [6], the target named is α7 nicotinic acetylcholine receptors (Rattus norvegicus, UniProt Q05941). Briefly: Voltage clamp electrophysiology, cloned α7 nicotinic receptor in Xenopus oocytes. To be noted: 95% CI in parentheses.
Data set [7] concerns the target rat γ-aminobutyric acid(A) receptor. Kind of data set: Competition radioligand binding, [3H]muscimol, rat brain membranes. To be noted: GABAA; [3H]muscimol 5 nM.
Data set [8] concerns the target α6/α3β2β3 nicotinic acetylcholine receptor (Rattus norvegicus, UniProt P04757+P12390+P12391+P43143). To be noted: 95% CI in parentheses.
For data set [9], the system named is nicotinic acetylcholine receptor subtype. Kind of data set: Agonist activity at nicotinic receptor subtypes in Xenopus oocytes. The settings on record: any nicotinic acetylcholine receptor subtype evaluated; data not shown.
The next data set deals with human μ-opioid receptor (Homo sapiens, UniProt P35372). Briefly: Competition radioligand binding, [3H]DAMGO. To be noted: 95% CI in parentheses.
Data set [10] has as its target T1, human serotonin(3) receptor (Homo sapiens, UniProt P46098).
T1 sequence (P46098 24-478): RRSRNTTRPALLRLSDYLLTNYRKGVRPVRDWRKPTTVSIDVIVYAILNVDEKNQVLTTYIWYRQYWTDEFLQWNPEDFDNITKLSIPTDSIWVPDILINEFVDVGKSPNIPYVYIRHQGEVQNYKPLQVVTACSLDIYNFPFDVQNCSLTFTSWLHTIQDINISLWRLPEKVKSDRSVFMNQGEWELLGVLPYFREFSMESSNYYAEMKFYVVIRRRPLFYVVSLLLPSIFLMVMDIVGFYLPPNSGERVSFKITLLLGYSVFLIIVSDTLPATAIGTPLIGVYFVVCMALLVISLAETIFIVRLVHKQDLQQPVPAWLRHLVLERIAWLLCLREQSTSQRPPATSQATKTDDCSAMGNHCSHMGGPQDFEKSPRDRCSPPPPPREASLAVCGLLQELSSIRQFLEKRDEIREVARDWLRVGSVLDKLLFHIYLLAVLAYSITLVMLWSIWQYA
Briefly: Competition radioligand binding, [3H]LY278584. The settings on record: for Ki: 5HT3.

The subject of data set [11] is formalin-induced flinching behavior. Kind of data set: Rodent model of inflammatory pain. It is filed as in vivo, rat. The settings on record: for ED50 (95% CI): formalin test, i.p. 15 min prior to formalin, rat.
In data set [12] the test system is mechanical hyperalgesia. Briefly: Chronic constriction nerve injury model of neuropathic pain. It is filed as in vivo, rat.
For data set [13], the system named is α4β2* nicotinic acetylcholine receptors. The settings on record: binding assays; ref Zhang et al., 2008; cited from earlier work.
Data set [14] has as its target α1β1δε nicotinic acetylcholine receptor (Mus musculus, UniProt P02716+P04756+P09690+P20782). To be noted: 95% CI in parentheses.
In data set [15] the target is rat γ-aminobutyric acid(B)(1b,2) receptor (Rattus norvegicus, UniProt Q9Z0U4). Briefly: Competition radioligand binding, [3H]CGP54626. To be noted: GABAB; [3H]CGP54626 2 nM.
The test system of another data set is tail flick latency. Briefly: Thermal acute nociception. It is filed as in vivo, rat. The settings on record: for maximum possible effect: tail-flick.
The target of data set [16] is α2β2 nicotinic acetylcholine receptor (Rattus norvegicus, UniProt P12389+P12390). The settings on record: 95% CI in parentheses.
Data set [17] has as its system rotarod performance. Kind of data set: Motor coordination. It is filed as in vivo, rat.
For the next data set, the target named is rat κ-opioid receptor (Rattus norvegicus, UniProt P34975). Briefly: Competition radioligand binding, [3H]U69593. To be noted: 95% CI in parentheses.
The target in data set [18] is α4β4 nicotinic acetylcholine receptor (Rattus norvegicus, UniProt P09483+P12392). The settings on record: 95% CI in parentheses.
Data set [19] relates to nicotinic acetylcholine receptors mediating nicotine-evoked dopamine release. The settings on record: ref Zhang et al., 2008; cited from earlier work.
In data set [20] the target is α6/α3β4 nicotinic acetylcholine receptor (Rattus norvegicus, UniProt P04757+P12392+P43143). To be noted: 95% CI in parentheses.
Data set [21] deals with α2β4 nicotinic acetylcholine receptor (Rattus norvegicus, UniProt P12389+P12392). The settings on record: 95% CI in parentheses.
Data set [22] addresses α4β2 nicotinic acetylcholine receptors (Rattus norvegicus, UniProt P09483+P12390).
Data set [23] deals with α9α10 nicotinic acetylcholine receptors (Rattus norvegicus, UniProt P43144+Q9JLB5).
For data set [24] the following is noted: in vivo; cited from earlier work.
Where [25] appears, read: chronic constriction injury paw, 3600 μg/kg i.p.

For the compound `c1cncc([C@@H]2CCCN2)c1` [S(−) nornicotine], the ED50 is 1.5 (0.6–3.6) mg/kg in data set [1]; 13.6 (9.2–19.9) mg/kg in the data set with rotarod performance [2] (rotarod, motor impairment, i.p.); 5.2 (3.1–8.5) mg/kg in the data set on mechanical hyperalgesia [3]. In addition, the “ED50 for motor impairment vs. analgesia, fold higher” value in the data set with rotarod performance [2] (rotarod vs chronic constriction injury and formalin) is on record as 3–9 fold.

In the case of `C(#Cc1cc(C#CCCC[n+]2cccc(-c3ccccc3)c2)c(C#CCCC[n+]2cccc(-c3ccccc3)c2)cc1C#CCCC[n+]1cccc(-c2ccccc2)c1)CCC[n+]1cccc(-c2ccccc2)c1.[Br-].[Br-].[Br-].[Br-]` [ZZ-204G, 5,5′,5″, 5‴-(1,2,4,5-benzenetetrayl)tetrakis-[1-(3-phenylpyridinium)-4-pentyne] tetrabromide], the “Hill Slope” value in data set [4] is 1.11 (0.28–1.9); in data set [5] it was 1.56 (1.1–2.0); in data set [6], 1.03 (0.48–1.6); in [8], 0.44 (0.33–0.56); on human μ-opioid receptor (μ-opioid binding), 1.1 (0.94–1.3); in data set [10] (5HT3 binding, 95% CI in parentheses), 1.05 (0.73–1.37). The “Hill Slope” value is recorded as 1.61 (1.2–2.1) in data set [14]; 1.25 (0.98–1.5) in data set [16]; 0.95 (0.67–1.2) on rat κ-opioid receptor (κ-opioid binding); 1.6 (0.99–2.2) in data set [18]; 1.2 (0.73–1.8) in data set [20]; 1.36 (0.98–1.7) in data set [21]. In addition, the “Hill Slope” value was 1.05 (0.73–1.4) in data set [22] (95% CI in parentheses) and 0.84 (0.59–1.1) in [23] (α9α10, 95% CI in parentheses). In addition, the half-inhibitory concentration (IC50) was determined as 750 nM in data set [4] (oocytes, acetylcholine 100 μM); 792 nM in data set [5] (oocytes, acetylcholine 100 μM); 8.8 nM in [6] (oocytes, acetylcholine 200 μM); 98.2 nM in data set [8] (oocytes, acetylcholine 100 μM); 120 nM in [14] (oocytes, acetylcholine 10 μM); 2330 nM in data set [16] (oocytes, acetylcholine 100 μM). For the same compound, the IC50 in data set [18] (oocytes, acetylcholine 100 μM) came out at 1730 nM; in data set [20] (oocytes, acetylcholine 100 μM), 6140 nM; in [21] (oocytes, acetylcholine 100 μM), 2900 nM; in [22] (oocytes, acetylcholine 100 μM, 95% CI in parentheses), 3830 nM. The Ki in data set [7] was greater than 10000 nM; at human μ-opioid receptor (μ-opioid, [3H]DAMGO 0.3 nM) it was 659 nM; in [10] ([3H]LY278584 0.3 nM, 95% CI in parentheses), 2230 nM; in [10] (displacing [3H]LY27854), 2200 nM; in [15] it was greater than 10000 nM; at rat κ-opioid receptor (κ-opioid, [3H]U69593 0.3 nM) it was 783 nM. Besides, the agonist activity result in [9] is recorded as “No agonist activity”. Further, the “ED50 (95% CI)” value in [11] (the first phase (0–10 min)) was 16.2 (2.9–90.3) μg/kg; in [11] (the second phase (20–60 min)) it was 2.12 (1.24 – 5.65) μg/kg. Besides, the “greater potency against formalin-evoked inflammatory pain than neuropathic pain” value in data set [11] (formalin vs chronic constriction injury) was ~ 50 fold. The maximum possible effect in the data set with mechanical hyperalgesia [12] (setting [25]) was 81.9±7.6%; in the data set with tail flick latency (3.6 μg/kg i.p.), 8.4±4.6%; in the data set on tail flick latency (36 μg/kg i.p.) it was 6.2±1.75%; in the data set with tail flick latency (360 μg/kg i.p.), 15.6±2.4%. The “time maximum possible effect was maintained after administration” value in the data set with mechanical hyperalgesia [12] (setting [25]) is 240 min. In addition, the “time to reach maximum possible effect” value in the data set on mechanical hyperalgesia [12] (setting [25]) is given as no more than 60 min. Besides, the “ED50 (95% CL)” value in the data set with mechanical hyperalgesia [12] (chronic constriction injury, paw pressure test, mechanical hyperalgesia, i.p., rat) was 96.2 (35.7–255.3) μg/kg. Further, the “AUC0–120min (antihyperalgesic effect)” value in the data set with mechanical hyperalgesia [12] (chronic constriction injury, 3.6 μg/kg i.p.) is given as 932.8±672.1; with mechanical hyperalgesia [12] (chronic constriction injury, 36 μg/kg i.p.), 1845.3±1008.0; with mechanical hyperalgesia [12] (chronic constriction injury, 360 μg/kg i.p.), 3126.6±840.9; with mechanical hyperalgesia [12] (chronic constriction injury, 3600 μg/kg i.p.) it was 6946.9±1632.2. Also, the “affinity for α4β2* nicotinic acetylcholine receptors” value in [13] was “poor affinity”. Besides, the “antinociceptive effect in the tail-flick assay” value with tail flick latency (3.6, 36, 360 μg/kg i.p. vs saline) is “not antinociceptive; also recorded: did not significantly differ from that of saline control”. The “motor effect at highest antihyperalgesic dose” value in the data set with rotarod performance [17] (naïve rats, 3,600 ug/kg) is given as “significant motor effect”. In the data set on rotarod performance [17] (rotarod performance, intact rats, i.p.), the “ED50 (95% CI), motor incoordination” value is 1884 (942–3767) μg/kg. Also, the “antagonism at nicotinic receptors mediating nicotine-evoked dopamine release” value in data set [19] is “weak antagonist”. Besides, the “block of acetylcholine-induced currents” value in data set [22] (100 nM compound) is ~ 5% and < 5%. For the same compound, the “inhibition of the acetylcholine response” value in data set [23] (α9α10, 10 nM compound, 0.01 µM) is 93.9 ± 1.4% and ~ 95%. The “effect on current with Ca++ in buffer replaced with equimolar Ba++” value in data set [23] (α9α10, 100 nM compound, n=3, data not shown) is “abolished the current”. The reversibility of block result in data set [23] (α9α10, washout of compound) is reported as “Block was reversed upon washout”. In addition, the “potency at κ- and μ-opioid receptors, fold less than at α9α10” value in [23] (κ- and μ-opioid receptors vs α9α10) came to 1000 fold.

Consider α-conotoxin Vc1.1, for which, in [24], the adverse effects entry is “did not produce any adverse effects”.

In general, IC50 refers to the concentration at which inhibition is half-maximal. A word on the Ki: it is the dissociation constant of the complex between target and ligand, obtained from inhibition or displacement.
